Data taken from patent US8741932B2, “Imidazopyridine derivatives” (Piramal Enterprises Limited, priority 2009, dated 2014).
Where two headings read alike, the source gives them in different places.

How the values were obtained:
A549 = assay: Cytotoxicity assay (propidium iodide), A549; assay type: cell-based; settings: Homo sapiens; A549 (C1a, lung); 48 hours
Procedure: (§1) Cells from cell lines as mentioned in the table given below were seeded at a density of 3000 cells/well in a white opaque 96-well plate. Following incubation at 37° C./5% CO2 for a period of 18-24 hours, the cells were treated with various concentrations (stock solution was prepared in DMSO and subsequent dilutions were made in media as per ATCC guidelines) of the representative compounds of present invention (refer table 3) for a period of 48 hours. At the end of treatment, the spent culture medium was discarded, the cells were washed with 1×PBS and 200 μl of 7 μg/ml propidium iodide was added to each well. The plates were frozen at −70° C. for at least 24 hours. For analysis, the plates were brought to RT, allowed to thaw and were read in PolarStar fluorimeter with the fluorescence setting. The percentage of viable cells in the non treated set of wells was considered to be 100 and the percentage viability following treatment was calculated accordingly. IC50 values were calculated from graphs plotted using these percentages.

H460 = assay: Cytotoxicity assay (propidium iodide), H460; assay type: cell-based; settings: Homo sapiens, NCI-H460; H460 (C1b, lung); 48 hours
A2780 = assay: Cytotoxicity assay (propidium iodide), A2780; assay type: cell-based; settings: Homo sapiens; A2780 (C3a, ovarian); 48 hours
OVCAR 3 = assay: Cytotoxicity assay (propidium iodide), OVCAR 3; assay type: cell-based; settings: Homo sapiens; OVCAR 3 (C3c, ovarian); 48 hours
Procedure: as §1

HCT116 = assay: Cytotoxicity assay (propidium iodide), HCT116; assay type: cell-based; settings: Homo sapiens, HCT-116; HCT116 (C4b, colon); 48 hours
Procedure: as §1

IL-6 = assay: Human monocyte assay, LPS-stimulated IL-6; assay type: cell-based; settings: Monocyte; human monocytes, 1 μg/ml LPS, 5 hours
Procedure, shortened: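 Adherent human PBMC-derived monocytes (2×10^4/well) were cultured 48 h, preincubated 30 min with compound or 0.5% DMSO, then stimulated with 1 μg/ml E. coli LPS for 5 h at 37° C. TNF-α and IL-6 in supernatants were measured by ELISA.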

PC3 = assay: Cytotoxicity assay (propidium iodide), PC3; settings: Homo sapiens, PC-3, 48 h, read-out: IC50 cytotoxicity
mTOR = target: T1, mTOR (Homo sapiens, UniProt P42345); assay: mTOR activity assay (cell ELISA, Phospho-AKT Ser 473, A2780 cells); assay type: cell-based
T1 construct: endogenous in cells; host or cells: A2780 ovarian cell line (ATCC)
Procedure: Seed cells (Ovarian cell line A2780, ATCC) were plated in a 96 well microtitre plate at a density of 50,000 cells/cm^2 in appropriate complete cell culture medium. The cells were allowed to adhere for 18-24 hours. The cells were allowed to starve for 24 hours. […] Then the cells were stimulated with 20% FCS for 30 minutes. A typical assay would consist of a set of unstimulated cells, a set of stimulated cells and a set of cells treated with compounds of present invention and a set of cells treated with the stimulator. The medium was discarded. The cells were fixed with 100 μL of 3.7% formaldehyde for 15 minutes. The formaldehyde was discarded by inverting the plate and tapping it on a thick tissue paper layer to remove traces. The cells were washed and permeabilized with 200 μL PBS+Triton-X 100 solution (hereafter referred to as PBS-Triton, containing 0.1% triton-X 100 in 1×PBS) three times, incubating the cells each time for 5 minutes. 100 μL blocking solution (10% FCS in PBS-Triton) was added and incubated for 1 hour at 25° C. The blocking solution was discarded and cells were incubated with the primary antibody in PBS-Triton at a dilution of 1:500 for 1 hour at RT (25° C.). [The primary antibody is Phospho-AKT (Ser 473); Cell Signaling; Cat. No. 9271]. The primary antibody solution was discarded and the cells were washed 3 times with PBS-Triton solution and incubated with the HRP-conjugated secondary antibody in PBS-Triton at a dilution of 1:500 for 1 hour at RT (25° C.). The cells were washed 3 times with PBS-Triton followed by two washes with PBS (to remove traces of triton-X 100). The OPD (o-phenylene diamine dihydrochloride) substrate was prepared for detection of the signal by dissolving one tablet set (two tablets) of SigmaFast OPD (Sigma, Cat No. P9187) in 20 mL distilled water. It should be protected from light. 100 μL OPD solutions was added to the wells and the plate was incubated in the dark for 3-5 minutes (depending upon the development of the color). The reaction was stopped by adding 50 μL 2 N H2SO4. The absorbance was measured at 490 nm. The values were expressed in the treated samples, in terms of percentage or fold decrease in AKT phosphorylation with respect to the induced sample. PI-103 (Calbiochem, USA) was used as a standard.

STAT3 = STAT3 bioassay (Hela Stat3-luc, luciferase); assay type: cell-based; settings: Homo sapiens, Oncostatin M induction
Procedure: Cells were seeded (Hela Stat3-luc, ATCC P/N 30-2002) in a white 96 well plate (Nunc cat.no.136101) at a density of 20,000cells/well in 179 μl volume per well (DMEM from Sigma containing 10% FCS). The plate was incubated for 24 hours at 37° C./5% CO2. The cells (wells in triplicates) were then treated with 1 μl/well of 200× stock of the desired compound concentration prepared in 100% DMSO. Curcumin was used as a standard or positive control, added 10 μg/ml in triplicate. DMSO was used as medium control (1 μl/well added in triplicates). The plate was incubated at 37° C./5% CO2 for 1 hour. 20 μl/well Oncostatin M (Oncostatin M, Human, Recombinant, E. coli, Cat.No. 496260, 10 μg from Calbiochem) was added to treated wells, induction control (in triplicate) (1000 ng/ml stock prepared in serum free medium to get final concentration 100 ng/ml). The plate was then incubated for 7-8 hours at 37° C./5% CO2 for induction. A typical assay would consist of triplicate of medium control, triplicate of induction control, triplicate of positive/standard control and test compounds at desired concentration in triplicates. For termination Luciferase assay protocol was followed where the culture medium was removed from all the wells.
200 μl well of PBS was added to remove traces of medium and compound. The PBS was discarded. 40 μl/well of 1× lysis buffer was added to all the wells. The plate was incubated at RT for 20 minutes with intermittent shaking. 100 μl/well of LAB reagent was added to all the wells in dark. {LAB reagent for 1 plate=8 ml Luciferase assay buffer (LAB)+1 ml Coenzyme A (Sigma cat no. C3019) (2.1 mg/ml stock in LAB)+530 μL of ATP (Sigma cat.no.A2383) (5.85 mg/ml stock in LAB)+1 ml luciferin reagent (Promega cat no.245355) (2 mg/ml stock in LAB, protect from light)}.
The luminescence was immediately read on polar star. The values were expressed as percentage inhibition, in terms of treated values to that STAT3 (induction control). IC50 values were calculated from graphs using these percentages.

PI3Kα kinase = target: T2, PI3Kα kinase (Homo sapiens, UniProt P42336); assay: Kinase assay (PI3Kα); assay type: biochemical; settings: for IC50: read-out: IC50 (μM) for PI3K inhibition
T2 construct: purchased Millipore, USA
T2 sequence (P42336 whole entry): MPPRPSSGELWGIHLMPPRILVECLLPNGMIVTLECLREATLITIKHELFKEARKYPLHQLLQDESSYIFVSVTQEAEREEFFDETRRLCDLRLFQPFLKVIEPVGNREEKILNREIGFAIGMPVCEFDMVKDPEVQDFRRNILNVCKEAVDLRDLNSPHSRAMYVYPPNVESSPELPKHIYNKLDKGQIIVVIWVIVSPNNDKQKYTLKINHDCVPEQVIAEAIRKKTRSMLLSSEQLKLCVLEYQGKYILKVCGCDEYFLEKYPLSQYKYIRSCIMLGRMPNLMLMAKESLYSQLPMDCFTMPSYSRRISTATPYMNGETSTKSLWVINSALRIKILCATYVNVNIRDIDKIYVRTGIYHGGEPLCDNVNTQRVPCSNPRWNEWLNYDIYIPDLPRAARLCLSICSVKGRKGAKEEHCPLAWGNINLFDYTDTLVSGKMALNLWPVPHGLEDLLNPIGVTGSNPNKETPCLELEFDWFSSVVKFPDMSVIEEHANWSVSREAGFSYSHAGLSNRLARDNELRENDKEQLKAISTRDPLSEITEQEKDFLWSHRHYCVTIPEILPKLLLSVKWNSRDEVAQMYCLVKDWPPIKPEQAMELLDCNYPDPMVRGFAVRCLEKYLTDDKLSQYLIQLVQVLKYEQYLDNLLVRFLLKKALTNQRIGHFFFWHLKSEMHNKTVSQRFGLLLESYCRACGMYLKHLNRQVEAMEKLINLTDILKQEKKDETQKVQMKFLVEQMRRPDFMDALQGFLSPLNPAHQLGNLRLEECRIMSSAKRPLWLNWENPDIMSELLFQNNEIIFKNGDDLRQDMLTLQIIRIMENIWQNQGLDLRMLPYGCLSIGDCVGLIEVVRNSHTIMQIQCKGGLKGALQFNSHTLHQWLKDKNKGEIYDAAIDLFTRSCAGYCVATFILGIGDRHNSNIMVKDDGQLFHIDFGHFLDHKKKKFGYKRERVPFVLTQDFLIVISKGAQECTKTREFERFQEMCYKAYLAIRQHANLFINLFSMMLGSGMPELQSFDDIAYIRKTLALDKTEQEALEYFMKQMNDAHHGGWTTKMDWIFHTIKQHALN
T2 sequence (P27986 whole entry partner): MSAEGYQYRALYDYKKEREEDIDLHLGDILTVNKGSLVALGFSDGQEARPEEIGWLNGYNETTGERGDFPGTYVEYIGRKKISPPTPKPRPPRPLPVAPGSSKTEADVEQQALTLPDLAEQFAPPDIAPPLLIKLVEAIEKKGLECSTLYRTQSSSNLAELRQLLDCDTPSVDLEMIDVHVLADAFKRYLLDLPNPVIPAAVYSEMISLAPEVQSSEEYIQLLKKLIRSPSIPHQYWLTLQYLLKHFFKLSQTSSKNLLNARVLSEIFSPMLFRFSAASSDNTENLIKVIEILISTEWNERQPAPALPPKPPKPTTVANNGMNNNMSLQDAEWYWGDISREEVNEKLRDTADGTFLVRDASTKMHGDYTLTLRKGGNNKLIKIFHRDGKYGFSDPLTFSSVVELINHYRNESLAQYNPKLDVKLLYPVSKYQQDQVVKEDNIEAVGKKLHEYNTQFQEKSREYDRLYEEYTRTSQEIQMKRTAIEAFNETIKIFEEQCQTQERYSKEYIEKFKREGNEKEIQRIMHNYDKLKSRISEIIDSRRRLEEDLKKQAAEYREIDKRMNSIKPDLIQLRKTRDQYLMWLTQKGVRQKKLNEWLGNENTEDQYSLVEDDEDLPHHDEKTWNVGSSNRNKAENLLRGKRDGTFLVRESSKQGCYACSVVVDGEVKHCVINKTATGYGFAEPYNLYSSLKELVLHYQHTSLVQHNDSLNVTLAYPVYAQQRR
Procedure: The kinase reaction was carried out in a 25 μL volume in a 1.5 mL microcentrifuge tube. The reaction mixture consisted of kinase buffer (10 mM Hepes, pH 7.5, 50 mM MgCl2), 20 ng PI3Kα kinase (Millipore, USA), 12.5 μg phosphotidylinositol (PI), 10 μM ATP and 1 μCi ^32γ P […]. […] The reactions were incubated at 30° C. for 20 minutes and were terminated by adding 1:1 mixture of MeOH and CHCl3. The tube contents were mixed on a vortex mixer and centrifuged at 10000 rpm for 2 minutes. 10 μL of the organic (lower) phase was spotted on to a TLC plate (silica, mobile phase: n-propanol and 2 M glacial acetic acid in 65:35 ratio). The plates were dried and exposed to an X-ray film. The bands appearing as a result of ^32γ P incorporation in PI were quantitated using the Quantityl)ne (BioRad, USA) densitometry program. PI-103 (Calbiochem, USA) was used as a standard.

TNF-α = assay: Human monocyte assay, LPS-stimulated TNF-α; assay type: cell-based; settings: human monocytes, 1 μg/ml LPS, 5 hours
Procedure: The assay was designed as in the reference, Physiol.
Peripheral blood mononuclear cells (hPBMC) were harvested from human blood and suspended in RPMI 1640 culture medium containing 10% FCS, 100 U/mL penicillin and […] streptomycin (assay medium). Monocytes in the hPBMCs were counted using a Coulter Counter following which the cells were resuspended at 2×10^5 monocytes/mL. A cell suspension containing 2×10^4 monocytes was aliquoted per well of a 96-well plate. Subsequently, the hPBMCs were incubated for 4-5 hours at 37° C., 5% CO2 (During the incubation, the monocytes adhered to the bottom of 96-well plastic culture plate). Following the incubation, the non-adherent lymphocytes were washed with assay medium and the adherent monocytes re-fed with assay medium. After a 48-hour incubation period (37° C., 5% CO2), monocytes were pretreated with various concentrations of representative compounds of present invention (refer to table 6 and 7) (prepared in DMSO) or vehicle (0.5% DMSO) for 30 minutes and stimulated with 1 μg/ml LPS (Escherchia coli 0111:B4, Sigma Chemical Co., St. Louis, Mo.). The incubation was continued for 5 hours at 37° C., 5% CO2. Supernatants were harvested, assayed for IL-6 and TNF-α by ELISA as described by the manufacturer (BD Biosciences, USA). Dexamethasone (10 μM) was used as standard for this assay. […] Biological results for both IL-6 and TNFα are indicated in Table 6 and Table 7 respectively.

[1] = read-out: % Inhibition of mTOR activity at 1 μM

IC50 (IL-6) | inhibition at 1 µM (mTOR; [1]) | IC50 (PI3Kα kinase) | Compound | IC50 (A549) | IC50 (H460) | IC50 (A2780) | also measured
≥ 5 µM |  |  | Cc1ccc(S(=O)(=O)N(C)N=Cc2cnc3ccc(-c4cccnc4)cn23)cc1 [Example 3, N, 4-dimethyl-N′-((6-(pyridine-3-yl)imidazo[1,2-a]pyridine-3-yl)methylene) benzenesulfonohydrazide] | 10 to 5000 nM | 10 to 5000 nM | 10 to 5000 nM | IC50 (OVCAR 3): 10 to 5000 nM; IC50 (HCT116): 10 to 5000 nM; IC50 (PC3): 10 to 5000 nM
 | 30 to 50% |  | CN(N=Cc1cnc2ccc(-c3cccnc3)cn12)S(=O)(=O)c1ccc(Br)cc1 [Example 8, 4-Bromo-N-methyl-N′-((6-(pyridine-3-yl)imidazo[1,2-a]pyridine-3-yl)methylene)benzenesulfonohydrazide] |  |  |  | IC50 (STAT3): 100 to 5000 nM
 |  |  | COc1ccc(S(=O)(=O)N(C)N=Cc2cnc3ccc(-c4cccnc4)cn23)cc1 [Example 12, 4-Methoxy-N-methyl-N′-((6-(pyridine-3-yl)imidazo[1,2-a]pyridine-3-yl)methylene)benzenesulfonohydrazide] | 10 to 5000 nM | 10 to 5000 nM | 10 to 5000 nM | IC50 (OVCAR 3): 10 to 5000 nM; IC50 (HCT116): 10 to 5000 nM; IC50 (PC3): 10 to 5000 nM
 | 30 to 50% | 0.5 to 1 µM | CN(N=Cc1cnc2ccc(-c3cccnc3)cn12)S(=O)(=O)c1ccc(F)c(F)c1 [Example 15, 3,4-difluoro-N-methyl-N′-((6-(pyridine-3-yl)imidazo[1,2-a]pyridine-3-yl)methylene) benzenesulfonohydrazide] |  |  |  | IC50 (STAT3): 100 to 5000 nM
0.001 to 5 µM | 30 to 50% | 0.01 to 0.5 µM | CN(N=Cc1cnc2ccc(-c3cccnc3)cn12)S(=O)(=O)c1cccc(Cl)c1F [Example 17, 3-Chloro-2-fluoro-N-methyl-N′-((6-(pyridine-3-yl)imidazo[1,2-a]pyridine-3-yl)methylene) benzenesulfonohydrazide] |  |  |  | 
0.001 to 5 µM | 30 to 50% | 0.01 to 0.5 µM | CN(N=Cc1cnc2ccc(-c3cccnc3)cn12)S(=O)(=O)c1cc(C(F)(F)F)cc(C(F)(F)F)c1 [Example 23, N-methyl-N′-((6-(pyridine-3-yl)imidazo[1,2-a]pyridine-3-yl)methylene)-3,5-bis(trifluoromethyl)benzenesulfonohydrazide] | 10 to 5000 nM | 10 to 5000 nM | 10 to 5000 nM | 
 |  |  | CN(N=Cc1cnc2ccc(-c3cccnc3)cn12)S(=O)(=O)c1cccs1 [Example 29, N-methyl-N′-((6-(pyridine-3-yl)imidazo[1,2-a]pyridine-3-yl)methylene) thiophene-2-sulfonohydrazide] | 10 to 5000 nM | 10 to 5000 nM | 10 to 5000 nM | IC50 (OVCAR 3): 10 to 5000 nM; IC50 (HCT116): 10 to 5000 nM; IC50 (PC3): 10 to 5000 nM
0.001 to 5 µM |  |  | COc1ccc(F)cc1S(=O)(=O)N(C)/N=C/c1cnc2ccc(-c3cccnc3)cn12 [Example 45, (E)-5-fluoro-2-methoxy-N-methyl-N′-((6-(pyridin-3-yl)imidazo[1,2-a]pyridin-3-yl)methylene)benzenesulfonohydrazide] | 10 to 5000 nM | 10 to 5000 nM |  | IC50 (TNF-α): 1 to 1000 nM
0.001 to 5 µM | 30 to 50% | 0.01 to 0.5 µM | CCN(/N=C/c1cnc2ccc(-c3cccnc3)cn12)S(=O)(=O)c1cc([N+](=O)[O-])ccc1C [Example 84] |  |  |  | 
0.001 to 5 µM |  |  | Cc1cc(-c2cccnc2)cn2c(/C=N/N(C)S(=O)(=O)c3ccc(F)c(C#N)c3)cnc12 [Example 105, (E)-3-cyano-4-fluoro-N-methyl-N′-((8-methyl-6-(pyridin-3-yl)imidazo[1,2-a]pyridin-3-yl)methylene)benzenesulfonohydrazide] |  |  |  | IC50 (TNF-α): 1 to 1000 nM
≥ 5 µM |  | 0.01 to 0.5 µM | Cc1ccc(F)cc1S(=O)(=O)N(C)/N=C/c1cnc2ccc(-c3cc4ccccc4[nH]3)cn12 [Example 115, (E)-N′-((6-(1H-indol-2-yl)imidazo[1,2-a]pyridin-3-yl)methylene)-5-fluoro-N,2-dimethylbenzenesulfonohydrazide] |  |  |  | IC50 (mTOR): 5000 to 10000 nM; IC50 (STAT3): 5000 to 10000 nM
 |  |  | Oc1cccc(-c2nc(N3CCOCC3)c3oc4ncccc4c3n2)c1 [PI-103, reference compound] |  |  |  | inhibition at 0.1 µM (PI3Kα kinase; at 100 nM): 80%; inhibition at 1 µM (mTOR; read-out: % Inhibition of mTOR activity at 1 μM (number, standard)): 50%
